Where a SMILES comes first, the peptide text is derived from it. [ ]: non-standard residue; d: D form. Nle = CCCC[C@H](N)C(=O)O
Key:
TZM = assay: Cytotoxicity against human TZM-bl cells; format: toxicity, cell-based
[1] = test system: Human immunodeficiency virus 1; assay: Antiviral activity against HIV-1 KP-5mvcR infected in human TZM-bl cells assessed as inhibition of viral entry by measuring reduction in RLU by single round assay; format: functional, organism-based; settings: Human immunodeficiency virus 1, KP-5mvcR
[2] = test system: Human immunodeficiency virus 1; assay: Antiviral activity against HIV-1 KP-5mvcR infected in human TZM-bl cells assessed as inhibition of viral entry by measuring reduction in RLU at 10 nM by single round assay relative to control; format: functional; parameters: scale not given: the % may be the effect or the level left

Compound	IC50 [1]	Activity (TZM)	Activity [2]
N=C(N)NCCCCC(=O)NCCN1CCC(NC(=O)C(=O)Nc2ccc(Cl)cc2)CC1	145 nM	Non-Toxic	
enfuvirtide	32 nM		
CCCC[C@H](NC(=O)[C@H](Cc1c[nH]c2ccccc12)NC(C)=O)C(=O)N[C@@H](CCC(=O)O)C(=O)N[C@@H](Cc1c[nH]c2ccccc12)C(=O)N[C@@H](CC(=O)O)C(=O)N[C@@H](CCCNC(=N)N)C(=O)N[C@@H](CCCCN)C(=O)N[C@H](C(=O)N[C@@H](CCC(=O)O)C(=O)N[C@@H](CCC(=O)O)C(=O)N[C@@H](Cc1ccc(O)cc1)C(=O)N[C@H](C(=O)N[C@@H](CCCCN)C(=O)N[C@@H](CCCCN)C(=O)N[C@H](C(=O)N[C@@H](CCCCN)C(=O)N[C@@H](CCCCN)C(=O)N[C@@H](CC(C)C)C(=O)N[C@H](C(=O)N[C@@H](CCC(=O)O)C(=O)N[C@@H](CCC(=O)O)C(=O)N[C@@H](CO)C(=O)N[C@@H](CCC(N)=O)C(=O)N[C@@H](CCC(=O)O)C(=O)N[C@@H](CCC(N)=O)C(=O)N[C@@H](CCC(N)=O)C(=O)N[C@@H](CCC(=O)O)C(=O)N[C@@H](CCCCN)C(=O)N[C@@H](CC(N)=O)C(=O)N[C@@H](CCC(=O)O)C(=O)N[C@@H](CCCCN)C(=O)N[C@@H](CCC(=O)O)C(=O)N[C@@H](CC(C)C)C(=O)N[C@@H](CCCCN)C(N)=O)[C@@H](C)CC)[C@@H](C)CC)[C@@H](C)O)[C@@H](C)CC (Ac-W[Nle]EWDRKIEEYTKKIKKLIEESQEQQEKNEKELK-NH2)	0.64 nM	Non-Toxic	
CC[C@H](C)[C@H](NC(=O)[C@H](CCCCN)NC(=O)[C@H](CCCCN)NC(=O)[C@H](CC(=O)O)NC(=O)[C@H](Cc1c[nH]c2ccccc12)NC(=O)[C@H](CCC(=O)O)NC(=O)[C@H](CCC(=O)O)NC(=O)[C@H](Cc1c[nH]c2ccccc12)NC(C)=O)C(=O)N[C@@H](CCC(=O)O)C(=O)N[C@@H](CCC(=O)O)C(=O)N[C@@H](Cc1ccc(O)cc1)C(=O)N[C@H](C(=O)N[C@@H](CCCCN)C(=O)N[C@@H](CCCCN)C(=O)N[C@H](C(=O)N[C@@H](CCC(=O)O)C(=O)N[C@@H](CCC(=O)O)C(=O)N[C@@H](CC(C)C)C(=O)N[C@H](C(=O)N[C@@H](CCCCN)C(=O)N[C@@H](CCCCN)C(=O)N[C@@H](CO)C(=O)N[C@H](CSCC(=O)NCCCC[C@H](NC(=O)[C@H](CO)NC(=O)CNC(=O)CNC(=O)CNC(=O)CNC(=O)CCC(=O)N[C@@H](CCCNC(=N)N)C(=O)NCCN1CCC(NC(=O)C(=O)Nc2ccc(Cl)cc2)CC1)C(N)=O)C(N)=O)[C@@H](C)CC)[C@@H](C)CC)[C@@H](C)O	150 nM		

The next lines start with results.

IC50 [1]	Compound	Activity (TZM)	Activity [2]
11 nM	O=C1Nc2ccc(Cl)cc2[C@@](C#CC2CC2)(C(F)(F)F)O1 [EFAVIRENZ]		
5.5 nM	CCCC[C@H](NC(=O)[C@H](Cc1c[nH]c2ccccc12)NC(C)=O)C(=O)N[C@@H](CCC(=O)O)C(=O)N[C@@H](Cc1c[nH]c2ccccc12)C(=O)N[C@@H](CC(=O)O)C(=O)N[C@@H](CCCNC(=N)N)C(=O)N[C@@H](CCCCN)C(=O)N[C@H](C(=O)N[C@@H](CCC(=O)O)C(=O)N[C@@H](CCC(=O)O)C(=O)N[C@@H](Cc1ccc(O)cc1)C(=O)N[C@H](C(=O)N[C@@H](CCCCN)C(=O)N[C@@H](CCCCN)C(=O)N[C@H](C(=O)N[C@@H](CCCCN)C(=O)N[C@@H](CCCCN)C(=O)N[C@@H](CC(C)C)C(=O)N[C@H](C(=O)N[C@@H](CCC(=O)O)C(=O)N[C@@H](CCC(=O)O)C(=O)N[C@@H](CO)C(=O)N[C@@H](CCC(N)=O)C(=O)N[C@@H](CCC(=O)O)C(=O)N[C@@H](CCC(N)=O)C(=O)N[C@@H](CCC(N)=O)C(=O)N[C@@H](CCC(=O)O)C(=O)N[C@@H](CCCCN)C(=O)N[C@@H](CC(N)=O)C(=O)N[C@@H](CCC(=O)O)C(=O)N[C@@H](CCCCN)C(=O)N[C@@H](CCC(=O)O)C(=O)N[C@@H](CC(C)C)C(=O)N[C@@H](CCCCN)C(=O)N[C@H](CSCC(=O)NCc1cn(CCCC[C@H](NC(=O)[C@H](CO)NC(=O)CNC(=O)CNC(=O)CNC(=O)CNC(=O)CCC(=O)N[C@@H](CCCNC(=N)N)C(=O)NCCN2CCC(NC(=O)C(=O)Nc3ccc(Cl)cc3)CC2)C(N)=O)nn1)C(N)=O)[C@@H](C)CC)[C@@H](C)CC)[C@@H](C)O)[C@@H](C)CC		
60 nM	Ac-WEEWDKKIEEYTKKIEELIKKS-NH2	Non-Toxic	
< 10 nM	CCCC[C@H](NC(=O)[C@H](Cc1c[nH]c2ccccc12)NC(C)=O)C(=O)N[C@@H](CCC(=O)O)C(=O)N[C@@H](Cc1c[nH]c2ccccc12)C(=O)N[C@@H](CC(=O)O)C(=O)N[C@@H](CCCNC(=N)N)C(=O)N[C@@H](CCCCN)C(=O)N[C@H](C(=O)N[C@@H](CCC(=O)O)C(=O)N[C@@H](CCC(=O)O)C(=O)N[C@@H](Cc1ccc(O)cc1)C(=O)N[C@H](C(=O)N[C@@H](CCCCN)C(=O)N[C@@H](CCCCN)C(=O)N[C@H](C(=O)N[C@@H](CCCCN)C(=O)N[C@@H](CCCCN)C(=O)N[C@@H](CC(C)C)C(=O)N[C@H](C(=O)N[C@@H](CCC(=O)O)C(=O)N[C@@H](CCC(=O)O)C(=O)N[C@@H](CO)C(=O)N[C@@H](CCC(N)=O)C(=O)N[C@@H](CCC(=O)O)C(=O)N[C@@H](CCC(N)=O)C(=O)N[C@@H](CCC(N)=O)C(=O)N[C@@H](CCC(=O)O)C(=O)N[C@@H](CCCCN)C(=O)N[C@@H](CC(N)=O)C(=O)N[C@@H](CCC(=O)O)C(=O)N[C@@H](CCCCN)C(=O)N[C@@H](CCC(=O)O)C(=O)N[C@@H](CC(C)C)C(=O)N[C@@H](CCCCN)C(=O)N[C@H](CSCC(=O)NCCCC[C@H](NC(=O)[C@H](CO)NC(=O)CNC(=O)CNC(=O)CNC(=O)CNC(=O)CCC(=O)N[C@@H](CCCNC(=N)N)C(=O)NCCN1CCC(NC(=O)C(=O)Nc2ccc(Cl)cc2)CC1)C(N)=O)C(N)=O)[C@@H](C)CC)[C@@H](C)CC)[C@@H](C)O)[C@@H](C)CC		95.6%

Reference: ChEMBL document CHEMBL5150050, “Hybrids of small CD4 mimics and gp41-related peptides as dual-target HIV entry inhibitors” (Bioorg Med Chem, 2022)
